Source: ChEMBL document CHEMBL1154758 (J Med Chem, 2010)

Assays:
Carbonic anhydrase 13 = Carbonic anhydrase 13 (Homo sapiens, UniProt Q8N1Q1)
Carbonic anhydrase 3 = Carbonic anhydrase 3 (Homo sapiens, UniProt P07451)
Carbonic anhydrase 15 = target: T1, Carbonic anhydrase 15 (Mus musculus, UniProt Q99N23)
T1 sequence (Q99N23 whole entry): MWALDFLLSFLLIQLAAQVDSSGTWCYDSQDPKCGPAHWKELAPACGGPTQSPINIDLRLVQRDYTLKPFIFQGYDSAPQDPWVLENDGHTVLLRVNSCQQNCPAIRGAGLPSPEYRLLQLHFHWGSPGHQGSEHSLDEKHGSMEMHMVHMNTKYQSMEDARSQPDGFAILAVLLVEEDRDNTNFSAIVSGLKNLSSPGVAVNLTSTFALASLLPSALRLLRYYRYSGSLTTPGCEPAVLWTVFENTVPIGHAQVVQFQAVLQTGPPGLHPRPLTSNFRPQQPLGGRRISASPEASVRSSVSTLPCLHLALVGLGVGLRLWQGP

Carbonic anhydrase 9 = Carbonic anhydrase 9 (Homo sapiens, UniProt Q16790)
[1] = target: Carbonic anhydrase 5B, mitochondrial (Homo sapiens, UniProt Q9Y2D0)
Sequence of Carbonic anhydrase 5B, mitochondrial (Q9Y2D0 whole entry): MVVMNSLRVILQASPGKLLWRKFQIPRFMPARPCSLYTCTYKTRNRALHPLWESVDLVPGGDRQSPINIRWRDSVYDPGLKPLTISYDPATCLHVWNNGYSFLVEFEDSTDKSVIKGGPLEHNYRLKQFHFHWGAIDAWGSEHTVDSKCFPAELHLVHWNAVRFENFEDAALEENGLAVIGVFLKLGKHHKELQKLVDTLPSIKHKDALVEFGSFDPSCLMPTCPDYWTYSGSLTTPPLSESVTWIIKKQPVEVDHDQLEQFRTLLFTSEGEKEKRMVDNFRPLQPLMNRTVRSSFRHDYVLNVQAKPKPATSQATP

Carbonic anhydrase 1 = Carbonic anhydrase 1 (Homo sapiens, UniProt P00915)
Sequence of Carbonic anhydrase 1 (P00915 whole entry): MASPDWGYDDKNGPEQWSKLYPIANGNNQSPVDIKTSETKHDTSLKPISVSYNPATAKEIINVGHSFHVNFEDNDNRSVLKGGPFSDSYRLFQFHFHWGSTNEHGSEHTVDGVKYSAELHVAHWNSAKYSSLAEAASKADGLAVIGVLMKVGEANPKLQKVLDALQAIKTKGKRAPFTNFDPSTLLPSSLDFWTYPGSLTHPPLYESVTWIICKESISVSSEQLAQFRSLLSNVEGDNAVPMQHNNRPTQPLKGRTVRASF

Carbonic anhydrase 14 = Carbonic anhydrase 14 (Homo sapiens, UniProt Q9ULX7)
Sequence of Carbonic anhydrase 14 (Q9ULX7 whole entry): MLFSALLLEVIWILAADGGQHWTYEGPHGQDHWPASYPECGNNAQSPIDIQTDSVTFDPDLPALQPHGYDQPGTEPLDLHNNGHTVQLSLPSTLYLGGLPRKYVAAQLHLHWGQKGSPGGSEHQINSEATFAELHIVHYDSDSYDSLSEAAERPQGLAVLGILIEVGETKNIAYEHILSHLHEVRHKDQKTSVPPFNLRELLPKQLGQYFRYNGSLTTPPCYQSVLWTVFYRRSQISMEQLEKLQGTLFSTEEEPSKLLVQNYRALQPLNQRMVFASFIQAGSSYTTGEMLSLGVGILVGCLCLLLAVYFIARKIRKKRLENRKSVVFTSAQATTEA

Carbonic anhydrase 4 = Carbonic anhydrase 4 (Homo sapiens, UniProt P22748)
Sequence of Carbonic anhydrase 4 (P22748 whole entry): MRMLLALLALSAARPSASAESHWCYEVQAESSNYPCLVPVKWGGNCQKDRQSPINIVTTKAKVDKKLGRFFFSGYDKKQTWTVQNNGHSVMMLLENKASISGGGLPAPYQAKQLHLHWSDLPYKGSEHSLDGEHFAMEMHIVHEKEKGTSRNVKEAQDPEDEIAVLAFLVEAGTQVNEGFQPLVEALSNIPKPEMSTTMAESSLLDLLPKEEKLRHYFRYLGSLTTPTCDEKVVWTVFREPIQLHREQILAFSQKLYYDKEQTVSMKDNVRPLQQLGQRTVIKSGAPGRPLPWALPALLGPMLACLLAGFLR

Carbonic anhydrase 12 = Carbonic anhydrase 12 (Homo sapiens, UniProt O43570); test: Inhibition of human recombinant CA12 by stopped flow CO2 hydrase assay
Sequence of Carbonic anhydrase 12 (O43570 whole entry): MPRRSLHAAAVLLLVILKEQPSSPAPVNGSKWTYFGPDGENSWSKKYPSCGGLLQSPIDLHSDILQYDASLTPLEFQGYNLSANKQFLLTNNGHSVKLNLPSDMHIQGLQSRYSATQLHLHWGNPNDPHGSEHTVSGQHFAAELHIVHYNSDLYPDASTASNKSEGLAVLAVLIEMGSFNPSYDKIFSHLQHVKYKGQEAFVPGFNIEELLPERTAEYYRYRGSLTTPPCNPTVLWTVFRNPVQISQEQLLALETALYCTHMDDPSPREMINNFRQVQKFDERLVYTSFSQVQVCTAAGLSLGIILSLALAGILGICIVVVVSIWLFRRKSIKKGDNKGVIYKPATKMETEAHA

[2] = target: Carbonic anhydrase 5A, mitochondrial (Homo sapiens, UniProt P35218)
Sequence of Carbonic anhydrase 5A, mitochondrial (P35218 whole entry): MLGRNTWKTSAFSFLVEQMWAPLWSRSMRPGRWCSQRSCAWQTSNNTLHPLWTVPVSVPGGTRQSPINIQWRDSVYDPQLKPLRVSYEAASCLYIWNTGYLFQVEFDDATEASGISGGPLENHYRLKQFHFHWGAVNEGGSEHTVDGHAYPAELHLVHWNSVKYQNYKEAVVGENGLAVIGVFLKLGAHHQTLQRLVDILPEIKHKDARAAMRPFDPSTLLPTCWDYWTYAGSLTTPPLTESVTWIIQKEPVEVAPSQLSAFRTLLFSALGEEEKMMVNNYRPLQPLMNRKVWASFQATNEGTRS

Carbonic anhydrase 6 = Carbonic anhydrase 6 (Homo sapiens, UniProt P23280)
Sequence of Carbonic anhydrase 6 (P23280 whole entry): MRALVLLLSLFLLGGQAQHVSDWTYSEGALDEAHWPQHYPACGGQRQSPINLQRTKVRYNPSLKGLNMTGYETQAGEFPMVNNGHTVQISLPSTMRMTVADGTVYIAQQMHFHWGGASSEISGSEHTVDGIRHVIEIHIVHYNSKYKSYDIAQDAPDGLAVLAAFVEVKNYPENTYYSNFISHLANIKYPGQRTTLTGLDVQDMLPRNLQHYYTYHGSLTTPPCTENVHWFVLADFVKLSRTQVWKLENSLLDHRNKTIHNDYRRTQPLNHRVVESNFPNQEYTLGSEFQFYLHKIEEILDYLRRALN

Carbonic anhydrase 7 = Carbonic anhydrase 7 (Homo sapiens, UniProt P43166); test: Inhibition of human recombinant CA7 by stopped flow CO2 hydrase assay
Sequence of Carbonic anhydrase 7 (P43166 whole entry): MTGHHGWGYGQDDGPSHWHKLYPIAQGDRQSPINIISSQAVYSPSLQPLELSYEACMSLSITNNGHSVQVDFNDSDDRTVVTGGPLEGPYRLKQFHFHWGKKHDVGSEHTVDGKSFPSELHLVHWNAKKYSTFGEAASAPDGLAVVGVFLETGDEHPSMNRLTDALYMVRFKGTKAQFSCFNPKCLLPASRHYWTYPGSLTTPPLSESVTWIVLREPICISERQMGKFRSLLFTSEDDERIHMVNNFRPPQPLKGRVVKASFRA

Sequence of Carbonic anhydrase 13 (Q8N1Q1 whole entry): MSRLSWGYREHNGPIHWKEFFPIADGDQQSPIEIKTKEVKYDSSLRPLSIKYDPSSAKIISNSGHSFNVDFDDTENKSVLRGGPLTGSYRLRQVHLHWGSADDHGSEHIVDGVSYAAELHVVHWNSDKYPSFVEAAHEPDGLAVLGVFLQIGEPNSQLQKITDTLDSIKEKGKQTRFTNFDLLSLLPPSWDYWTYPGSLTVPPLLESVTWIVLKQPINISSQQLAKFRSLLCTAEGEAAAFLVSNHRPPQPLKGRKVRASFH
Sequence of Carbonic anhydrase 3 (P07451 whole entry): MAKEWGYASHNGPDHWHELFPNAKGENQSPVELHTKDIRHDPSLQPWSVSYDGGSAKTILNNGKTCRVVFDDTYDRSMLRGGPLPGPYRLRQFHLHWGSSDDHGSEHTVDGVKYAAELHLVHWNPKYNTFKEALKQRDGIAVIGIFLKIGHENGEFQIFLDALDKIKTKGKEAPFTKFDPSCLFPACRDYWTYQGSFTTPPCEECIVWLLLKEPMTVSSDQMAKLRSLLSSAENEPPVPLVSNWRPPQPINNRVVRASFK

| Compound | Ki (Carbonic anhydrase 13) | Ki (Carbonic anhydrase 3) | Ki (Carbonic anhydrase 15) | Ki (Carbonic anhydrase 9) | Ki [1] | Ki (Carbonic anhydrase 1) | Ki (Carbonic anhydrase 14) | Ki (Carbonic anhydrase 4) | Ki (Carbonic anhydrase 12) | Ki [2] | Ki (Carbonic anhydrase 6) | Ki (Carbonic anhydrase 7) |
| --- | --- | --- | --- | --- | --- | --- | --- | --- | --- | --- | --- | --- |
| Nc1ccc(S(N)(=O)=O)cc1 [SULFANILAMIDE] | 32 nM | 988 nM | – | – | – | – | – | – | – | – | – | – |
| COc1cc2oc(=O)ccc2cc1[C@@H](O)CC(C)C | – | – | 93100 nM | – | – | – | – | – | – | – | – | – |
| COC[C@@H](NC(C)=O)C(=O)NCc1ccccc1 [LACOSAMIDE] | 1210 nM | 374 nM | 461 nM | 353 nM | 341 nM | 362 nM | 473 nM | 525 nM | 3710 nM | 4570 nM | 412 nM | 4450 nM |
